Test results as given in US20140121235A1, “Method for Treating S6K-Overexpressing Cancers” (Rush University Medical Center, priority 2012, published 2014).

Experiments:
[1] = tested on: ribosomal protein S6^S235/S236 phosphorylation; test: Western blot of S6 phosphorylation in A375 cells; format: cell-based
Protocol: (§1) A375 cells seeded in a 6-well plate were starved in DMEM medium containing 0.5% FBS for 2 hr and treated with the indicated concentration of A77 1726 or PLX 4720 (1 μM) for another 2 hr (A) or treated with A77 1726 (100 μM) for the indicated time (B & C). Cells were harvested and analyzed for protein phosphorylation by specific antibodies as indicated. Protein loading was monitored by stripping membrane and re-probing with antibodies against non-phosphorylated proteins. […] A375 cells seeded in a 6-well plate were starved in DMEM medium containing 05% FBS for 2 hr and treated with the indicated concentration of A77 1726 in the absence or presence of uridine (200 μM). Phosphorylated and total proteins were analyzed by Western blot as described above.
(§2) A375 cells seeded in 6-well plates were starved in DMEM medium containing 0.5% FBS for 2 hr and then pre-treated with vehicle (0.1% dimethyl sulfoxide), LY294002 (10 μM) (A), PPP (1 μM) (B), or the inhibitors of the MAP kinase pathway (PLX4720, 1 μM; U0126, 10 μM; PD98059, 10 μM) (C) for 1 hr. Cells were then treated with A77 1726 (100 μM) or rapamycin (20 nM) as indicated for 2 hr. Cells were harvested and analyzed for protein phosphorylation by specific antibodies as indicated. Protein loading was monitored by stripping membrane and re-probing with antibodies against non-phosphorylated proteins.
(§3) Cells grown in 6-well plates were harvested and lysed in NP-40 lysis buffer (50 mM Tris-HCI (pH 8.0), 150 mM NaCl, 1% NP-40, 5 mM EDTA, 10 μg/ml aprotinin, 10 μg/ml leupeptin, and 1 mM phenylmethylsulfonyl fluoride). After incubation on ice for 30 min, the cell lysates were prepared by spinning down at 4° C., 15,000 rpm for 15 min. After electrophoresis and transfer to Immobolin membrane, proteins of interest were probed with their specific antibodies, followed by horseradish peroxidase-conjugated goat anti-rabbit IgG and SuperSignal Western Pico enhanced chemiluminoscence substrate (Pierce Chemical Co., Rockford, Ill.).
(§4) The PI-3 and MAP kinase pathways play an important role in cell proliferation, differentiation, and cell cycle progress. Multiple genes in these two pathways are frequently mutated and have a commanding role in driving tumorigenesis and tumor cell proliferation (2; 3). […] Here we tested whether A77 1726 affected the activation of MAP and PI-3 kinase pathways. A375 cells grown in 6-well plates were starved in the media containing 0.5% FBS for 2 hr and then treated with the indicated concentration of A77 1726. […] We next explored the effect of A77 1726 in phosphorylation of the molecules in the PI-3 kinase pathway.

[2] = tested on: AKT^S473 and S6K1^T389 phosphorylation; test: Western blot of PI-3 kinase pathway phosphorylation in A375 cells; format: cell-based; details: A375 cells, dose-dependent
Protocol: as §1, §2, §3, §4

[3] = target: recombinant p70 S6 kinase (S6K1) (Homo sapiens, UniProt P23443); test: In vitro p70 S6 kinase assay (ADP-Glo Kinase assay system); format: biochemical; details: 30 min pre-incubation, ATP 10 μM, 1 hr, read-out: IC50, inhibition of recombinant S6K1 activity
Chain of recombinant p70 S6 kinase (S6K1) (P23443 whole entry): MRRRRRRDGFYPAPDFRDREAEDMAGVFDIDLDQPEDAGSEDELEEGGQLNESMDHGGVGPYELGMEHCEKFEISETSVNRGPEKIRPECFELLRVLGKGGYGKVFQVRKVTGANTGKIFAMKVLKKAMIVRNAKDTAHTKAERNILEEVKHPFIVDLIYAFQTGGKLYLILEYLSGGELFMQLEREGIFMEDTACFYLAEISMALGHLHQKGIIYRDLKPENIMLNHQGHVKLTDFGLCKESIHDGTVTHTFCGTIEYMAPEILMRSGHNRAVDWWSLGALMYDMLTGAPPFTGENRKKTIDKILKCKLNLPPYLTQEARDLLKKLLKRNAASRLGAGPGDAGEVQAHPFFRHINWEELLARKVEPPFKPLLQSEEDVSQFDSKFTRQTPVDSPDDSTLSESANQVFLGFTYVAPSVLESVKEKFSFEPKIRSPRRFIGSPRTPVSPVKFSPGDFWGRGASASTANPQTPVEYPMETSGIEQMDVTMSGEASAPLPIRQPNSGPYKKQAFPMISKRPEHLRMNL
Protocol: Leflunomide and A77 1726 diluted at the final concentrations as indicated were pre-mixed with S6K1 for 30 min, followed by the addition of peptide substrate of S6K1 and incubation for 1 hr. S6K1 activity was measured by using a ADP-Glo™ system. The experiment was repeated with similar results. The data represents the mean±standard deviation from one experiment in triplicate.
The ability of lefiunomide and A77 1726 to inhibit p70 S6 kinase assay was conducted by using an ADP-Glo™ Kinase assay system (Promega Corporation, Madison, Wis.). Briefly, A77 1726 or leflunomide diluted in the kinase buffer was mixed with recombinant p70 S6 kinase (100 ng/reaction) and incubated at room temperature for 30 min. Peptide substrate of p70 S6 kinase (5 μg/reaction) and ATP (10 μM, final concentration) was added, with a total final volume of 25 μl. After incubation for 1 hr, ADP-Glo™ reagent (25 μl) was added to each reaction. After incubation for 40 min, kinase detection substrate (luciferin) (50 μl/reaction) was added. After incubation fix 30 min, luciferase activity was measured by reading in a luminescence plate reader. The experiment was conducted in triplicate and repeated once with similar results. The data from one experiment were presented as mean±standard deviation.

[4] = rheumatoid arthritis patients treated with leflunomide 20 mg/day; cited from earlier work
cyclin D1 expression = test: Cyclin D1 expression in A375 cells; format: cell-based; set-up: dose or concentration left out as unconfirmed; details: A375 cells, 24, 48 and 72 hours; time-dependent
Protocol: FIG. 13 illustrates inhibition of […]) expression by A 77 1726.
S6K 1 has been implicated in playing an important role in regulating expression of cyclin D1. Cyclin D1 expression was tested in the presence of A 77 1726. A375 cells were treated with […] A 77 1726 for 0, 24, 48 and 72 hours.

IC50 ([1]; Homo sapiens, A-375, read-out: IC50 to inhibit S6 phosphorylation in cell culture): 50 to 75 µM
IC50 [3]: ~80 µM
SMILES: C/C(O)=C(\C#N)C(=O)Nc1ccc(C(F)(F)F)cc1 [A77 1726]
effect on S6^S235/S236 phosphorylation ([1]; A375 cells, A77 1726 dose-dependent or 100 μM, rapamycin 20 nM, PPP 1 μM): inhibited
effect on AKT^S473 and S6K1^T389 phosphorylation [2]: strongly induced
plasma concentration of A77 1726 [4]: ≤ 200 µM
effect on cyclin D1 expression (cyclin D1 expression): inhibited
